What was measured:
[1] = tested on: different cancer cell lines (MCF-7, HeLa, 4T1, A549, A549cisR, A2780, A2780cisR); assay: Cytotoxicity, MTT assay, all tested cancer cell lines (FIG. 9); format: cell-based
Procedure: (§1) The biological activity of complex 1 was evaluated. Human breast carcinoma MCF-7 cells, human cervix carcinoma HeLa cells, mammary breast carcinoma 4T1 cells, human lung carcinoma A549 cells, and cisplatin-resistant A549cisR cells were cultured in DMEM containing 10% FBS and 100 IU mL^−1 penicillin/streptomycin. Human ovarian carcinoma A2780 and A2780cisR cells were cultured in RPMI-1640 containing 10% FBS, 2 mM L-glutamine, and 100 IU mL^−1 penicillin/streptomycin. Human lung fibroblast MRC-5 cells were cultured in MEM containing 10% FBS, 1% NEAA, 1% L-Glutamine, 1% sodium pyruvate, and 100 IU mL^−1 penicillin/streptomycin. In every two passages of A2780cisR and A549cisR cells, 5 μM of cisplatin was added to maintain the platinum resistance. All the cells were cultured in humidified incubators at 37° C. with 5% CO2. Cell counting was performed with a hemocytometer. Cytotoxicity test was performed by exposing the cancer cells with complex 1. The viability of cancer cells exposed was evaluated by means of MTT assay. Specifically, the cells were first pre-seeded in 6-well plates until the confluency reached 80%. Then, the medium was removed and replaced with fresh medium containing different concentrations of complex 1 with 0.5% DMF (0, 2.5, 5, 12.5, 25, or 40 μM). After 30 min, the medium was aspirated, the well was washed with PBS for three times. […]

HeLa cells = assay: Cytotoxicity, MTT assay, HeLa cells; format: cell-based, human; conditions: IC50 without vs with radiation
Procedure: as §1

[2] = Stability of complex 1 in the dark (HPLC); format: physicochemical; conditions: 10 μM, PBS pH 7.4, RPMI-1640 culture medium and A2780 cell lysate, no radiation
Procedure: The stability of complex 1, i.e., complex 1 in phosphate buffer saline (PBS) buffer, cell culture medium such as RPMI-1640, and cell lysate in the dark (i.e., in the absence of radiation) was determined. To determine the stability of complex 1 in PBS, complex 1 (10 μM) was dissolved in PBS buffer (pH 7.4, 1% DMF) and incubated at 310 K in the dark. At 24 h, the sample was analyzed by HPLC to determine the percentage of Pt(IV) remained. To determine the stability of complex 1 in complete RPMI-1640 culture medium (containing 10% FBS, 2 mM L-Glutamine, and 100 IU mL^−1 penicillin/streptomycin) or cell lysate (from A2780 cells by 1% triton X-100 lysis, protein concentration adjusted to 1.5 mg mL^−1), complex 1 was dissolved in these two solutions, respectively (with 1% DMF). At determined time intervals, 50 μL of samples were taken out and diluted with 200 μL MeOH with subsequent centrifugation at 14,000×g to remove proteins, and then the supernatant was analyzed by HPLC.

[3] = Sono-activation (sono-induced reduction) of complex 1 in PBS, HPLC; format: physicochemical; conditions: 4 W
Procedure: The sono-activation property of complex 1 was investigated. A PBS solution (with 1% DMF) containing 10 μM complex 1 with or without 5 mM sodium ascorbate (i.e. the sample), was continuously treated with ultrasound (1.75 MHz, 4 W) for a total period of time of 60 min. The sample temperature was monitored with an FLIR thermographic camera and maintained at 37° C. throughout the experiment. […] (FIGS. 6C to 6E), indicating the reduction of Pt(IV) to Pt(II) along with the dissociation of the axial ligand 1 and hydroxide ligand upon sono-activation (i.e. complex 1 undergoes a sono-induced reduction).

[4] = tested on: Human lung fibroblast MRC-5 cells; assay: Cell viability of normal MRC-5 cells (FIG. 10); format: cell-based; conditions: absence of ultrasound, 24 h
Procedure: as §1

[5] = Photo-activation of complex 1 by 808 nm laser, HPLC; format: physicochemical; conditions: 10 μM in PBS (1% DMF), 5 mM ascorbate, laser 808 nm, 3.3 mW/cm^2, 15 min
Procedure: The inventors have further investigated if complex 1 could be activated by other types of radiation such as EM radiation, in particular light such as infrared light. A PBS buffer solution (with 1% DMF) containing 10 μM complex 1 with 5 mM ascorbate in a quartz cuvette was irradiated with a laser (808 nm, 3.3 mW/cm^2) for 15 min under stirring. The sample was analysed by HPLC. […] In view of the similar profiles, the inventors believe that complex 1 would also release singlet oxygen upon photo-activation along with the aforementioned photo-induced reduction.

## CCCN1/C(=C/C=C2\CCCC(/C=C/C3=[N+](CCC)c4ccccc4C3(C)C)=C2Oc2ccc(CCC(=O)[O][Pt]3([NH2])([NH2])([OH])[O]C(=O)C4(CCC4)C(=O)[O]3)cc2)C(C)(C)c2ccccc21 [complex 1, cyaninplatin]
[1]; ultrasound 3.5 W, 15 min
  activity on tested cells upon ultrasound treatment: very active
[1]; without the ultrasound treatment
  toxicity to tested cells without ultrasound treatment: generally non-toxic
HeLa cells
  enhancement of cytotoxicity upon exposure to radiation: about 6 times
[2]
  time complex is stable in the dark (single HPLC peak): ≥ 6 h
[3]; 10 μM in PBS (1% DMF), 5 mM ascorbate, ultrasound 1.75 MHz, about 60 min, 37° C.
  complex 1 reduced (to Pt(II)) after sono-activation: about 95%
[3]; 10 μM in PBS, with or without 5 mM ascorbate, with or without ultrasound 1.75 MHz
  conditions required for sono-induced reduction: only occurs under the condition where both ascorbate and ultrasound are present
[4]
  toxicity to normal MRC-5 cells: non-toxic
[5]
  photo-activation / photo-induced reduction to Pt(II) complex: can be photo-activated

— patent publication US12103941B2, “Radiation-activatable platinum complex, its preparation and therapeutic use” (City University of Hong Kong, priority 2022, dated 2024)
